Experimental data reported in patent US20240316047A1, “INHIBITORS OF RNA HELICASE DHX9 AND USES THEREOF” (ACCENT THERAPEUTICS, INC., priority 2022, published 2024).

What was measured:
LS411N cells = test: DHX9 cellular proliferation assay (CellTiter-Glo), LS411N (CRC-MSI); format: cell-based; conditions: performed at Pharmaron; read-out: LS411N (CRC-MSI-H) Antiproliferative
NCI-H747 cells = test: DHX9 cellular proliferation assay (CellTiter-Glo), NCI-H747 (CRC-MSS); format: cell-based; conditions: performed at Pharmaron; read-out: H747 (CRC-MSS) Antiproliferative
[1] = target: Human recombinant DHX9 protein (Homo sapiens (Human), UniProt Q08211); test: DHX9 ATPase assay (ADP-Glo); format: biochemical; conditions: for IC50: read-out: DHX9 Biochemical Inflection Point
Chain of Human recombinant DHX9 protein (Q08211 whole entry): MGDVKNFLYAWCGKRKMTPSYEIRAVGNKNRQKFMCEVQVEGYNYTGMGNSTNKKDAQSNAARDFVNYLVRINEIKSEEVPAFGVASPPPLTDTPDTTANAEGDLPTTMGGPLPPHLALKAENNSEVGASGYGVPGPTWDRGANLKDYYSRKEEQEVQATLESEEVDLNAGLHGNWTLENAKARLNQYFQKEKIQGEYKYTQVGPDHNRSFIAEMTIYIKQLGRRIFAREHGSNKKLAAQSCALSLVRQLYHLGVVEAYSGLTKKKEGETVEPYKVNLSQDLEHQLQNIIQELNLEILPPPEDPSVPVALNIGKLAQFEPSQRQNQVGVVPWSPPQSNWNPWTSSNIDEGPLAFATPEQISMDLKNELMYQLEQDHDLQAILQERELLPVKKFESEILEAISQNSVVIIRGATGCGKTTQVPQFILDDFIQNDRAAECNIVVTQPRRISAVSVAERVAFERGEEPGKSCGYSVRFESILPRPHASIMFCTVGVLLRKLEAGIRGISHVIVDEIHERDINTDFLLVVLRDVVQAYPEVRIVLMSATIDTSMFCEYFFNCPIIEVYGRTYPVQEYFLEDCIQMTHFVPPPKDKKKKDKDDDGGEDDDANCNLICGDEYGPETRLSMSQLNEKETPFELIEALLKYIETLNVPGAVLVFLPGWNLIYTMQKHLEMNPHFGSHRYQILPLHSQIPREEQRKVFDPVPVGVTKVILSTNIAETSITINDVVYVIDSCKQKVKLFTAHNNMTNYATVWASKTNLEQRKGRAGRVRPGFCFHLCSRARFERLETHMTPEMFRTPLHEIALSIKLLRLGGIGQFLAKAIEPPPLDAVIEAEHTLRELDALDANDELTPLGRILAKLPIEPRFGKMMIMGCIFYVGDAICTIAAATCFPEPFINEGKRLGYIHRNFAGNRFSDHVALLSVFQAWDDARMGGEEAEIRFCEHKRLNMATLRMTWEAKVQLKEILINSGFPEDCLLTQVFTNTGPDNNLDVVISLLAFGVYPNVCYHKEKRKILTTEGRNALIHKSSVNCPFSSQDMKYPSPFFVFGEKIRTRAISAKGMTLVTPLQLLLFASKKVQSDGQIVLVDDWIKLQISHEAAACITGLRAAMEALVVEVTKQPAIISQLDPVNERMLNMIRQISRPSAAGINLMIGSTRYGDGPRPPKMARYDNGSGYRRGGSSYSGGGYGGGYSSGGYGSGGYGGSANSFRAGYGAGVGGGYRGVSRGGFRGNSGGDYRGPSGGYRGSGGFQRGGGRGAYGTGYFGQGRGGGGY

[2] = test system: circBRIP1 in HCT116 cells; test: DHX9 circBRIP1 cellular target engagement SYBR Green assay; format: cell-based; conditions: SyBr assay (^+); read-out: DHX9 Cellular Target Engagement
[3] = test system: circBRIP1 in HCT116 cells; test: DHX9 circBRIP1 cellular target engagement TaqMan multiplex assay; format: cell-based; conditions: Taqman assay (*); read-out: DHX9 Cellular Target Engagement

SMILES | IC50 (LS411N cells) [nM] | IC50 (NCI-H747 cells) [nM] | DHX9 Biochemical Max Inhibition [1] | IC50 [1] [nM] | EC50 [2] [nM] | EC50 [3] [nM]
Cc1cc(C(=O)Nc2cc(Cl)cc(NS(C)(=O)=O)c2)cn1-c1ccc(N(C)C2CCOC2)cn1 (stereo not shown) [Example 675] | 121 | > 10000 | 71.2 | 4.1 | 23.2 | –
Cc1sc(C(=O)Nc2cc(Cl)cc(NS(C)(=O)=O)c2)cc1-c1ncc(N2CC(C(F)(F)F)C2)cc1F [Example 477] | 80.2 | 2520 | 68 | 46.8 | – | 24.2
